This is an account of results in patent US20250197831A1, “LACTASE SOLUTION” (GODO SHUSEI CO., LTD., priority 2021, published 2025).

Counter-ions that a name gives are not always drawn.

Data set [1] is described as follows: Filter permeability test of the lactase solution (slope −a of flux vs permeate). It counts as physicochemical. Particulars: for Slope (−a) Before Shaking: immediately after preparation; for Slope (−a) After Shaking: shaken at 20° C., 30 mm, 100 spm, 1 hour. The procedure:
The detailed conditions in this example of the filter permeability test will be described in detail below.
The following operation was performed in an environment of 5 to 15° C. • 1. A measuring apparatus, a lactase solution sample, and distilled water were cooled to the test environment temperature. • 2. The lactase solution sample was diluted with distilled water or concentrated by ultrafiltration to adjust the lactase activity to 16,000 to 17,500 U/g and mixed well. • 3. In the test, one in which a 25 nun stainless steel filter holder (manufactured by PALL Corporation, product number 1209 (effective membrane area: 3.7 cm^2)) is connected to a stainless steel holder with a 47 mm tank (Advantec Toyo Kaisha, Ltd., product name “KST-47”) was used as an apparatus. A sample permeating portion in the filter holder is configured to include an O-ring, a membrane, a support screen, and an underdrain disc from the measurement sample inlet side (in the test of the present invention, the filter of the stainless steel holder with the tank and the parts of the filter bolding portion (the support screen and the support thereof) were not attached). As the membrane, DURAPORE (product name) (pore diameter: 0.22 μm, φ25 mm, made of hydrophilic PVDF) manufactured by Merck Millipore was used, and as the support screen, Type 316 stainless steel attached to the filter holder was used. In addition, in order to adjust the permeation rate, four circular label stickers (manufactured by A-One Co., Ltd., product name A-one color label 07010) having a diameter of 0.9 cm were stuck symmetrically to an upper portion of the support screen (measurement sample inlet side) (effective membrane area: 1.26 cm^2), and a membrane filter (pore diameter: 0.22 μm) was set. The membrane was rinsed with a 50% glycerin aqueous solution and attached to the stainless steel filter holder. • 4. The lactase solution sample (sample) diluted in 2. was charged into the stainless steel holder with the tank. • 5. A pressure of 0.2 MPa was applied to the stainless steel holder with the tank using an air compressor (manufactured by Yaezaki Kuatsu Co., Ltd., product name “KAPSEL-CON YC-3R” or “PC4-15HLM”), and the enzyme solution was pumped. The permeate was received in a container such as a beaker, the amount of the permeate was recorded every 10 seconds, and (1) the permeation amount (permeate (kg/m^2)) and (2) the permeation rate (flux (kg/min×m^2)) per square meter of the membrane were determined by the following method. In addition, the slope a of an approximate curve y=ax+b obtained when (1) is plotted on the x axis and (2) is plotted on the y axis was determined.
Permeate (kg/m^2)=weight (g) of product that permeated at point n/(membrane radius (mm))×membrane radius (mm)×circumference ratio)(m^2)×1000 (1)
Flux (kg/min×m^2)=(permeate at point n−permeate at point (n−1))/(permeation time (min) at point n−permeation time (min) at point (n−1)) (2) • *n indicates a measurement point. In order to record the permeation amount for every 10 seconds, for example, when the point n is for the permeation amount or permeate at the time of permeation for 10 seconds, the point (n−1) is for the permeation amount of permeate at the time of permeation for 0 seconds.
(§1) A predetermined amount of a given additive was added to GODO-YNL2LS, and the slope (−a) showing filter permeability and the residual activity of lactase activity were measured.
Each lactase solution was obtained by adding the additive shown in the table in a predetermined amount to 60,000 U/g GODO-YNL2LS. […] The lactase activity of each lactase solution after storage at 50° C. for 3 days was measured.

A further data set addresses T1, lactase (Kluyveromyces lactis, UniProt P00723).
T1 construct: purchased GODO SHUSEI CO., LTD; GODO-YNL2LS
As to the kind of experiment: Residual activity of lactase activity after storage. It counts as physicochemical. Particulars: for Residual Activity: storage at 50° C. for 3 days; for residual activity of lactase activity after storage (storage stability test): 0.005% and 0.01% in 60,000 U/g lactase solution, stored at 12° C. for 30 days. The procedure: In the following examples and the like, commercially available GODO-YNL2LS (manufactured by GODO SHUSEI CO., LTD.) was used as the lactase solution. […]
A diluted enzyme solution (0.5 mL) and 0.5 mL of a basic buffer (100 mM phosphate buffer (pH 6.5) containing 0.1 mM manganese chloride) are mixed, and the mixture is preheated at 37° C. for 3 minutes, and then, 1.0 mL of a 1.65 mM O-nitrophenyl-β-D-galactopyranoside (ONPG) aqueous solution is added thereto to cause a reaction at 37° C. for 1 minute. After 2.0 mL of a reaction stop solution (200 mM sodium carbonate) was added thereto, the absorbance at OD 420 nm was measured. One unit (U) is the enzyme activity that increases the OD […] by 1 from the substrate in 10 minutes.
as §1
Each lactase solution was obtained by adding the additive shown in the table in a predetermined amount to 60,000 U/g GODO-YNL2LS. Each lactase solution immediately after preparation was subjected to a filter permeability test and a lactase activity measurement by the above-mentioned methods. […]
In a container, 0.03 g of a saturated fatty acid and 1 mL of a 1 M aqueous sodium hydroxide solution were mixed, and 4 mL of distilled water was added thereto. The mixture was subjected to a saponification treatment in boiling water at 100° C. for 5 minutes, then left to cool to room temperature, and the reaction product was added to 294 g of a total amount of the lactase solution (GODO-YNL2LS) (addition amount: 0.01%). The filtrate obtained by filtering this was subjected to a filter permeability test and a residual activity of lactase activity.
In this example, 108 g of 99% glycerin was mixed with 0.03 g of the unsaturated fatty acid in a container. The mixture was added to 192 g of a total amount of the lactase solution (GODO-YNL2LS) (addition amount: 0.01%). The filtrate obtained by filtering this was subjected to a filter permeability test and a residual activity of lactase activity.

T1 sequence (P00723 whole entry): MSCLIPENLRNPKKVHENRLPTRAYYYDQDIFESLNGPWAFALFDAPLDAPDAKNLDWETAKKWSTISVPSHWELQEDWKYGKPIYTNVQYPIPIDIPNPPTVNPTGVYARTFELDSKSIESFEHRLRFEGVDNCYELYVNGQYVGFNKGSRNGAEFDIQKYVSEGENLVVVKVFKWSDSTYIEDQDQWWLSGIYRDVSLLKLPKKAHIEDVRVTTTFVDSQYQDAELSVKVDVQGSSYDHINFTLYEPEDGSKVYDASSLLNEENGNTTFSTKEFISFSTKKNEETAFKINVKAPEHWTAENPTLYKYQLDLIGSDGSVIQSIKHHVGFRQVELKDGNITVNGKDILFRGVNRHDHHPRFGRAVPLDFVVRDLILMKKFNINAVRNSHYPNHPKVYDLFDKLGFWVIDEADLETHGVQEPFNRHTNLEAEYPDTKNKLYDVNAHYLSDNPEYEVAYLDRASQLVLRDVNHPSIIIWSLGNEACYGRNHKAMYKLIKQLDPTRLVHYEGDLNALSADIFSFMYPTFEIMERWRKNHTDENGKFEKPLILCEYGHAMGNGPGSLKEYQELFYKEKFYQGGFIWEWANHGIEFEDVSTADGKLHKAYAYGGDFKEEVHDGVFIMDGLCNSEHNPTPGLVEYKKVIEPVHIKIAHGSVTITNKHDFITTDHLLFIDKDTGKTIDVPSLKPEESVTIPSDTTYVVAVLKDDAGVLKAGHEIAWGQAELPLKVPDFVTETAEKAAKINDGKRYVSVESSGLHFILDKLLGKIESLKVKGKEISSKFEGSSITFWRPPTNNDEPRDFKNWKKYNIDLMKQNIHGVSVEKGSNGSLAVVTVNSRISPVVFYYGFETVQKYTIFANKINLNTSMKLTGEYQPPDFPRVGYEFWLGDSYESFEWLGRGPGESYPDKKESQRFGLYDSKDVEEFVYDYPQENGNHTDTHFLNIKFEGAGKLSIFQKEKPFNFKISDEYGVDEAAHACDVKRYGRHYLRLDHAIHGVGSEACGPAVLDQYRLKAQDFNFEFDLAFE

For `CCCCCCCCCC(=O)[O-].[Na+]` [Na Decanoate], in data set [1] (additive 0.01 % in GODO-YNL2LS), the “Slope (−a) Before Shaking” value is reported as 0.0228.

Take `CCCCCCCCCCCCCCCC(=O)[O-].[Na+]` [Na Palmitate]: in data set [1] (additive 0.01 % in GODO-YNL2LS), the “Slope (−a) Before Shaking” value is given as 0.0200. For the same compound, the “Slope (−a) After Shaking” value in data set [1] (additive 0.01 %) was “deteriorated”. Further, the “Residual Activity” value at lactase (additive 0.01 %) was 61.5%.

`CCCCCCCC/C=C\CCCCCCCC(=O)O` [Oleic Acid]: in data set [1] (additive 0.01 % in GODO-YNL2LS), the “Slope (−a) Before Shaking” value came to 0.0272. In data set [1] (additive 0.01 %), the “Slope (−a) After Shaking” value stood at 0.0407. The “residual activity of lactase activity after storage (storage stability test)” value on lactase is listed as “practical level”. In addition, on lactase (additive 0.01 %), the “Residual Activity” value was 72.0%.

Take `CCCCC/C=C\C/C=C\CCCCCCCC(=O)O` [Linoleic Acid]: the “Slope (−a) Before Shaking” value in data set [1] (additive 0.01 % in GODO-YNL2LS) came out at 0.0265. In addition, the “Slope (−a) After Shaking” value in data set [1] (additive 0.01 %) amounted to 0.0253. Further, the “residual activity of lactase activity after storage (storage stability test)” value at lactase is listed as “practical level”. Further, the “Residual Activity” value on lactase (additive 0.01 %) was determined as 61.1%.

For `CCCCCCCC/C=C\CCCCCCCC(=O)[O-].[Na+]` [Na Oleate], the results for the “Slope (−a) Before Shaking” value in data set [1] (additive 0.005 % in GODO-YNL2LS) and in data set [1] (additive 0.1 % in GODO-YNL2LS) were 0.0243 and 0.0542, respectively. Besides, the “Slope (−a) After Shaking” value in data set [1] (additive 0.005 %) is reported as 0.0216; in data set [1] (additive 0.1 %) it was 0.0405. In addition, the “Residual Activity” value is listed as 64.3% at lactase (additive 0.005 %) and 71.4% at lactase (additive 0.01 %).

As for `N[C@@H](CS)C(=O)O` [Cysteine], the “Residual Activity” value at lactase (Table 2, addition amount 0.02) is 1.1%.

For `CCCCCCCCCCCCCC(=O)[O-].[Na+]` [Na Myristate], the “Slope (−a) Before Shaking” value in data set [1] (additive 0.01 % in GODO-YNL2LS) is 0.0147. The “Residual Activity” value on lactase (additive 0.01 %) stood at 70.7%.

Regarding `C[N+](C)(C)CC(=O)O` [Betaine Hydrochloride], the “Slope Before Shaking” value in data set [1] (Table 2, addition amount 0.1, immediately after preparation) was found to be 0.0291. For the same compound, the “Residual Activity” value at lactase (Table 2, addition amount 0.1) is on record as 66.5%.

Take `CCCCCCCCCCCCCCCCCC(=O)[O-].[Na+]` [Na Stearate]: in data set [1] (additive 0.01 % in GODO-YNL2LS), the “Slope (−a) Before Shaking” value was 0.0273. Also, the “Slope (−a) After Shaking” value in data set [1] (additive 0.01 %) is recorded as “deteriorated”. Also, at lactase (additive 0.01 %), the “Residual Activity” value stood at 61.9%.

For `CCCCCCCCCCCC(=O)[O-].[Na+]` [Na Laurate], the “Slope (−a) Before Shaking” value in data set [1] (additive 0.01 % in GODO-YNL2LS) was determined as 0.0176. For the same compound, in data set [1] (additive 0.01 %), the “Slope (−a) After Shaking” value came to 0.0590.

On to `N[C@@H](CCC(=O)N[C@@H](CS)C(=O)NCC(=O)O)C(=O)O` [Reduced Glutathione], for which the “Residual Activity” value on lactase (Table 2, addition amount 0.02) is 19.9%.
